Like-named read-outs stand apart in the source and are kept apart here.

The nature of experiment [1]: Ca2+ titration of dye fluorescence in Ca-EGTA buffers. Format: binding. The following applies: for Kd: read-out: Apparent Kd for Ca^2+. Here is the method: The excitation bandwidth was 1.9 nm, the emission was collected at 510 nm with 4.6 nm bandwidth, and the spectra were automatically corrected for excitation lamp and monochromator characteristics using a rhodamine B quantum counter. The titration was done starting with 5 ml of 100 mM KCl, 10 mM KMOPS, 10 mM K2 H2 EGTA, 1 microM fura-2, adjusting the pH to 7.20, recording the spectrum, then discarding 0.5 ml of this solution and replacing with 0.5 ml of 100 mM KCl, 10 mM KMOPS, 10 mM K2 CaEGTA, 1 microM fura-2, readjusting the pH to 7.20, and recording the spectrum which was then in 9 mM K2 H2 EGTA and 1 mM K2 CaEGTA. Subsequent iterations to reach n mM CaEGTA, (10-n) mM EGTA, n=2-10, were done by discarding 5.0/(11-n) ml and replacing with equal volumes of the 10 mM K2 CaEGTA -1 microM fura-2 stock. After n=10 had been reached to give a free Ca^2+ between 10^-4 and 10^-5 M, addition of 1 mM CaCl2 had no further effect on the spectrum. Equality of Ca and EGTA contents in the K2 CaEGTA solution was insured by titration of K2 H2 EGTA with CaCl2 to the potentiometric endpoint measured with a Ca^2+ -selective electrode. EGTA was Fluka Chemical "puriss" grade.
The dye, 6 microM, was titrated in 115 mM KCl, 20 mM NaCl, 10 mM MOPS, 1.115 mM MgCl2, 1.115 mM K2 H2 EGTA, KOH to pH 7.050±0.004, 37° C., to which small aliquots of K2 CaEGTA were added from a micrometer syringe to raise free Ca^2+ to the values labeling each curve, in units of nM unless otherwise specified. Excitation was at 355 nm, and both excitation and emission were set to 5 nm bandwidth. These spectra are not corrected for the emission sensitivity characteristics of the Perkin Elmer MPF-44; in particular the notch at 465 nm is an instrumental artifact. Corrected emission spectra show the low-Ca 485 nm peak to be of very similar amplitude to the high-Ca 404 nm peak when excitation is at 355-356 nm.
Free [Ca^2+ ] levels were controlled by Ca-EGTA buffers assuming apparent dissociation constants for Ca-EGTA of 380 nM at pH 7.00 in 0.1M KCl, 20° C.; 151 nM at pH 7.20 in 0.1M KCl, 20° C.; 214 nM at pH 7.05 in 130 mM KCl, 20 mM NaCl at 37° C.; and 490 nM at pH 7.02 in 225 mM KCl, 25 mM NaCl at 18° C. The first three apparent dissociation constants were calculated from the tables of Martell & Smith (see reference 11) as discussed in referencess 1 and 12. The last value was freshly determined in this study because no appropriate absolute constants were available at the higher ionic strength, and existing estimates in the biological literature (see references 13-17) vary by an unacceptably large range, >0.5 log unit. For this determination we chose the classic and reliable method of pH titration in the presence and absence of excess metal ion (see references 18). Details are included in the METHODS OF SYNTHESIS section, supra.
Dissociation constants for the new indicators disclosed herein, as exemplified by chelators stil-1, stil-2, indo-1, fura-1, fura-2 and fura-3 (see Table I, infra), are in the range 100-300 nM at ionic strengths near 0.1 to 0.15. Such values are close to the dissociation constant (110 nM) of the parent compound BAPTA (see reference 6), showing that the substituents that make up the rest of the chromophores are only slightly electron-withdrawing. […] A considerable decrease in Ca^2+ binding strength is observed, to an apparent dissociation constant of 760 nM. Such a strong dependence on ionic strength is not surprising for the reaction of a tetravalent anion with a divalent cation.
where Kd is the effective dissociation constant. The fluorescence ratio R is the ratio [formula] Solving for [Ca^2+ ] yields the calibration equation: [formula] Note that FA1 /FA2 is simply the limiting value that R can have at zero [Ca^2+ ] and so may be considered Rmin, while FB1 /FB2 is the analogous limiting Rmax that the ratio has at saturating [Ca^2+ ]. […]

Experiment [2] is described as follows: Zn2+ titration of dye fluorescence in Zn-EGTA buffer, Hill plots. Format: binding. The method, then:
Heavy metal binding constants were measured as follows. Affinities of stil-1 and fura-2 for Zn^2+ were measured by titrating 1-2 microM dye in 120 mM KCl, 5 mM K2 H2 EGTA, 10 mM MOPS, 5 mM Tris, with 1M ZnCl2 dispensed from a micrometer syringe. […] (see reference 11).
Binding of fura-2 to some of the physiologically more important heavy divalent metals was also briefly examined. Both stil-1 and fura-2 bind zinc with dissociation constants around 1.6-2 nM (pKZn 8.6-8.8). […] Curiously Zn^2+ shifts the fura-2 spectrum the same way that Ca^2+ does, whereas Zn^2+ quenches quin2 and therefore acts oppositely to Ca^2+. Fura-2 is also better than quin2 in rejecting Mn^2+, the Mn^2+ :Ca^2+ preferences being 42-fold and 510-fold respectively (see reference 26). […] A more precise estimate was prevented by experimental scatter, which may reflect more complicated stoichiometry than 1:1 or imperfectly anaerobic conditions. Both Mn^2+ and Fe^2+ quench fura-2 as expected for metals with many unpaired electrons. For comparison, EGTA prefers Zn^2+, Mn^2+, and Fe^2+ to Ca^2+, by factors of ca. 50, ca. 20, and ca. 8-fold respectively (see reference 11).

The conditions of experiment [3]: cited from earlier work.
The conditions of experiment [4]: cited from earlier work. The source holds these as a separate data set.
For experiment [5] the following is noted: reference 26; cited from earlier work.
For experiment [6] the following is noted: reference 26; cited from earlier work. This is another data set of the same source.
Setting [7] is: 115 mM KCl, 20 mM NaCl, 10 mM KMOPS, pH 7.05, 1 mM free Mg^2+, 37° C.

On to `Cc1ccc(N(CC(=O)O)CC(=O)O)c(OCCOc2cc(/C=C/c3ccc(S(=O)(=O)N(C)C)cc3)ccc2N(CC(=O)O)CC(=O)O)c1` [stil-2], for which, in experiment [1] (100 mM KCl, 37° C., pH 7.08, cis-trans mixture as saponified), the Kd was 0.224 µM.
On to `Cc1ccc(N(CC(=O)O)CC(=O)O)c(OCCOc2cc3cc(-c4ccc(C(=O)O)cc4)oc3cc2N(CC(=O)O)CC(=O)O)c1` [fura-1, 1-(2-(4-carboxyphenyl)-6-amino-benzofuran-5-oxy)-2-(2'-amino-5'-methylphenoxy)ethane-N,N,N',N'-tetraacetic acid], for which the Kd in experiment [1] (setting [7]) was found to be 0.107 µM.
`Cc1ccc(N(CC(=O)O)CC(=O)O)c(OCCOc2cc(/C=C/c3ccc(C(=O)O)cc3)ccc2N(CC(=O)O)CC(=O)O)c1` [stil-1]: the Kd in experiment [1] (100 mM KCl, 20° C., pH 7.1-7.2) is 0.132 µM; in experiment [1] (setting [7]), 0.2 µM; in experiment [2] (120 mM KCl, pH 7.12, room temperature, read-out: dissociation constant for zinc), 0.0016 to 0.002 µM. In experiment [2], the “Zn^2+:Ca^2+ preference” value is “two orders of magnitude”. In addition, the pKZn in experiment [2] (120 mM KCl, pH 7.12, room temperature) was 8.6-8.8.
On to `O=C(O)CN(CC(=O)O)c1ccccc1OCCOc1ccccc1N(CC(=O)O)CC(=O)O` [BAPTA, 1,2-bis(2-aminophenoxy)ethane N,N,N',N'-tetraacetic acid], for which the Kd was 0.11 µM in experiment [3] (parent compound, reference 6, read-out: dissociation constant (Ca^2+)) and 0.1 µM in experiment [3] (reference 6, read-out: Kd (Ca^2+)).
As for `COc1cc(N(CC(=O)O)CC(=O)O)c2nc(COc3cc(C)ccc3N(CC(=O)O)CC(=O)O)ccc2c1` [quin-2], the Kd in experiment [3] (100 mM KCl, 20° C., pH 7.1-7.2, data taken from reference 4, read-out: Apparent Kd for Ca^2+) was 0.08 µM; in experiment [4] (37°, references 6 and 7, read-out: Mg^2+ dissociation constant), approximately 1000 µM; in experiment [4] (background statement, read-out: dissociation constant for Mg^2+), 1000 to 2000 µM; in experiment [4] (ca. 22°, references 6 and 7, read-out: Mg^2+ dissociation constant) it was approximately 2000 µM. For the same compound, the “Zn^2+:Ca^2+ preference” value in experiment [5] was 3.5 orders of magnitude. Moreover, in experiment [6], the “Mn^2+:Ca^2+ preference” value is recorded as 510 fold.
In the case of `Cc1ccc(N(CC(=O)O)CC(=O)O)c(OCCOc2cc3cc(-c4ccc(C#N)cc4)oc3cc2N(CC(=O)O)CC(=O)O)c1` [fura-3, 1-(2-(4-cyanophenyl)-6-aminobenzofuran-5-oxy)-2-(2'-amino-5'-methylphenoxy)ethane-N,N,N',N'-tetraacetic acid], the Kd in experiment [1] (setting [7]) was determined as 0.14 µM.
As for `Cc1ccc(N(CC(=O)O)CC(=O)O)c(OCCOc2cc(-c3cc4ccc(C(=O)O)cc4[nH]3)ccc2N(CC(=O)O)CC(=O)O)c1` [indo-1, 1-(2-amino-5-[6-carboxyindolyl-2]-phenoxy)-2-(2'-amino-5'-methylphenoxy)ethane-N,N,N',N'-tetraacetic acid], the “Kd from ratio calibration equation 5” value in experiment [1] (FIG. 4 data, emission 400 nm / 490 nm, 115 mM KCl, 20 mM NaCl, pH 7.050, 37° C.) came out at 0.25 µM.

The record behind these values is patent US4603209A, “Fluorescent indicator dyes for calcium ions” (priority 1984, dated 1986).
